Data reported in patent US8933099B2, “Monocyclic pyridine derivative” (Eisai R&D Management Co., Ltd., priority 2013, dated 2015).

Experiments:
Assay type in all cases: in vivo
[1] = test system: human stomach cancer cell line SNU-16 xenograft; test: Antitumor effect in SNU-16 subcutaneous xenograft model in mice; conditions: oral, once a day for 11 days, tumor volume last day
Text: Human stomach cancer cell line SNU-16, which had been cultured in an RPMI-1640 medium containing 10% FBS, and penicillin and streptomycin, were adjusted to a concentration of 1×10^8 cells/mL with Hanks' Balanced Salt Solution (GIBCO #24020) to prepare a cell suspension, and the suspension was mixed with […] (BD Biosciences, Cat#354234) in a ratio of 1:1 to prepare a cell suspension in a concentration of 5×10^7 cells/ml. The cell suspension was inoculated in a volume of 100 ut into a subcutaneous part of a right flank of nude mice, 6 to 7 weeks of ages (BALB/cAiel-nu/nu, female, Clea Japan Inc.). Seven days after cell inoculation, the shortest diameter and the longest diameter of a tumor in each mouse were measured by using an electronic digital caliper (Digimatie™ caliper, Mitutoyo Corporation), so as to calculate the volume of the tumor in accordance with the following calculation formula: Tumor volume(mm^3)Longest diameter(mm)×Shortest diameter(mm)×Shortest diameter(mm)/2
(§1) On the basis of the volumes of tumors obtained on the first day of administration, the nude mice were grouped such that averages of the tumor volumes were substantially equal among the groups. Each test substance was dissolved in DMSO, Tween 80 was added thereto to prepare a solution in a 10-fold concentration and the thus prepared solution was stored at the freezer before use. Immediately before the administration, the stock solution was diluted with a 5% glucose solution to obtain a final administration solution (in which a ratio in % among DMSO, Tween 80 and the 5% glucose solution was 3.5:6.5:90). Each evaluation sample was orally administered to test substance administration group at a volume of 0.4 mL per 20 g of body weight once a day continuously for 11 days, and in a control group, an administration solvent was orally administered under the same conditions. Incidentally, the experiment was conducted on groups each consisting of 5 mice.
(§2) With respect to each of the control group and test substance administration group, a ratio of the weight measured on the final day to the weight measured on the first day (relative body weight: RBW) was calculated. If a ratio of the RBW of the test substance administration group/the RBW of the control group is 0.9 or mom, the corresponding test substance administration group was defined as a well-tolerated. In the test substance administration group thus defined as well-tolerated, a ratio of the tumor volume of the test substance-dosing group to the tumor volume of the control group obtained on the last day (TIC) (%) was calculated, and shown in Table 21.

[2] = test system: human lung cancer cell line NCI-H1581 xenograft; test: Antitumor effect in NCI-H1581 subcutaneous xenograft model in mice; conditions: oral, once a day for 11 days, tumor volume last day
Experimental: Human lung cancer cell line NCI-H1581, which had been cultured in RPMI-1640 medium containing 10% FBS, and penicillin and streptomycin, were adjusted to a concentration of 1×10^8 cells/mL with Hanks' Balanced Salt Solution(GIBCO #24020) to prepare a cell suspension, and the suspension was mixed with […] in a ratio of 1:1 to prepare a cell suspension in a concentration of 5×10^7 cells/mL. The cell suspension was inoculated in a volume of 100 μL into a subcutaneous part of a right flank of each of nude mice, 6 to 7 weeks of ages (BALB/cAJcl-nu/nu, female, Clea Japan Inc.). Ten to 11 days after the cell inoculation, the shortest diameter and the longest diameter of a tumor in each mouse were measured by using an electronic digital caliper (Digimatic™ caliper, Mitutoyo Corporation), so as to calculate the volume of the tumor in accordance with the following calculation formula: Tumor volume(mm^3)=Longest diameter(mm)×Shortest diameter(mm)×Shortest diameter(mm)/2
as §1
as §2, with “more,” for “mom,”, “22.” for “21.”

[3] = test system: cell line RT112/84 xenograft; test: Antitumor effect in RT112/84 subcutaneous xenograft model in mice; conditions: oral, once a day for 14 days, tumor volume last day
Text: Human […] cancer cell line RT112/84 (ECACC Number EC85061106-F0), which had been cultured in an RPMI-1640 medium containing 10% […], and penicillin and streptomycin, were adjusted to a concentration of 1×10^8 cells/mL with Hanks' Balanced Salt Solution (GIBCO 1424020) to prepare a cell suspension, and the suspension was mixed with […] (BD Biosciences, Cat/354234) in a ratio of 1:1 to prepare a cell suspension in a concentration of 5×10^7 cells/ml. The cell suspension was inoculated in a volume of 100 μL into a subcutaneous part of a right flank of nude mice, 7 weeks of age (BALB/cAJcl-nu/nu, female, Clea Japan Inc.). Ten days after cell inoculation, the shortest diameter and the longest diameter of a tumor in each mouse were measured by using an electronic digital caliper (Digimatic™ caliper, Mitutoyo Corporation), so as to calculate the volume of the tumor in accordance with the following calculation formula: Tumor volume(mm^3)=Longest diameter(mm)×Shortest diameter(mm)×Shortest diameter(mm)/2 […]
With respect to each of the control group and test substance administration group, a ratio of the weight measured on the final day to the weight measured on the first day (relative body weight: RBW) was calculated. […]

CNC(=O)n1ccc2cc(Oc3ccnc(NC(=O)c4ccc(C5CCN(CCO)CC5)cc4)c3)c(OCCOC)cc21 [Example 22, 5-((2-(4-(1-(2-Hydroxyethyl)piperidin-4-yl)benzamide)pyridin-4-yl)oxy)-6-(2-methoxyethoxy)-N-methyl-1H-indole-1-carboxamide]
T/C (%) ([1]; 6.25 mg/kg): 49%
T/C (%) ([1]; 12.5 mg/kg): 26%
T/C (%) ([1]; 25 mg/kg): 17%
T/C (%) ([1]; 50 mg/kg): 18%
T/C (%) ([2]; 6.25 mg/kg): 46%
T/C (%) ([2]; 12.5 mg/kg): 21%
T/C (%) ([2]; 25 mg/kg): 13%
T/C (%) ([2]; 50 mg/kg): 8%
T/C (%) ([3]; 25 mg/kg): 62%
T/C (%) ([3]; 50 mg/kg): 33%
